The results in this text go back to patent publication US20250207131A1, “MODIFIED RNA AGENTS WITH REDUCED OFF-TARGET EFFECT” (Alnylam Pharmaceuticals, Inc., priority 2018, published 2025).

[UNA] = unlocked nucleic acid; d = 2'-deoxy (DNA); r = 2'-OH (RNA); f = 2'-fluoro

The nature of data set [1]: UV thermal melting temperatures of TNA 12-mer duplexes. The class given is physicochemical. The note with it: 1×PBS; for ΔTm (° C.): relative to unmodified duplex; for Tm (° C.): TNA 12-mer duplexes, 2.0 μM each strand, pH 7.4. The source says:
Values were reported as the maximum of the first derivative and are the average of at least two experiments. […] The structures x and y are shown here:
(§1) Values were reported as the maximum of the first derivative and are the average of at least two experiments.

Data set [2] in a line: UV thermal melting temperatures of mUNA 12-mer duplexes. The note with it: for ΔTm (° C.): relative to unmodified duplex; for Tm (° C.)a / Tm (° C.)b: mUNA 12-mer duplexes, 2.0 μM each strand, pH 7.4. The class given is physicochemical.
Text: as §1

For the substance “AD-649415.1 (sense UACAGUCUAUGU; antisense ACAUAGACUGUA; sense: sugars from the 5' end r5 f1 r6, backbone not given here; antisense: sugars from the 5' end r6 f1 r5, backbone not given here)”, in data set [1], the “ΔTm (° C.)” value was found to be 1.6 °C and the “Tm (° C.)” value is 54.22 °C.

Turning to “AD-649417.1 (sense TACAGTCTATGT; antisense ACATAGACTGTA; chemistry not fully specified)”, in data set [1], the “ΔTm (° C.)” value came out at 0.65 °C and the “Tm (° C.)” value amounted to 43.07 °C.

As to “AD-649411.1 (sense UACAGUCUAUGU; antisense ACAUAGACUGUA; chemistry not fully specified)”, in data set [1], the “ΔTm (° C.)” value was −11 °C and the “Tm (° C.)” value is 41.57 °C.

In the case of “AD-64367.3 (sense TACAGTCTATGT; antisense ACATAGACTGTA; DNA, backbone not given here)”, in data set [1], the “ΔTm (° C.)” value turned out to be 0 °C and the “Tm (° C.)” value turned out to be 42.42 °C.

Consider “AD-72586.2 (sense TACAGTCTATGT; antisense ACATAGACTGTA; siRNA; chemistry not fully specified)”, for which, in data set [1], the “ΔTm (° C.)” value was determined as 2.1 °C and the “Tm (° C.)” value was determined as 40.32 °C.

With “AD-64981.2 (sense TACAGUCTATGT; antisense ACATAGACTGTA; siRNA; sense: sugars from the 5' end d5 f1 d6, backbone not given here; antisense: DNA, backbone not given here)”, in data set [1], the “ΔTm (° C.)” value is −2.615 °C and the “Tm (° C.)” value stood at 40.055 °C.

Turning to “AD-649414.1 (sense UACAGUCUAUGU; antisense ACAUAGACUGUA; chemistry not fully specified)”, in data set [1], the “ΔTm (° C.)” value turned out to be 0.45 °C and the “Tm (° C.)” value came out at 53.07 °C.

With “AD-649418.1 (sense TACAGTCTATGT; antisense ACATAGACTGTA; sense: chemistry not given here; antisense: DNA, backbone not given here; further chemistry not fully specified)”, in data set [1], the “ΔTm (° C.)” value was −1.78 °C and the “Tm (° C.)” value came to 40.64 °C.

Take “AD-649426.1 (sense TACAGTCTATGT; antisense ACATAGACTGTA; sense: sugars from the 5' end d6 f1 d5, backbone not given here; antisense: sugars from the 5' end d5 f1 d6, backbone not given here)”: in data set [1], the “ΔTm (° C.)” value came out at 0.1 °C and the “Tm (° C.)” value amounted to 42.77 °C.

On to “AD-649412.1 (sense UACAGUCUAUGU; antisense ACAUAGACUGUA; sense: RNA, backbone not given here; antisense: chemistry not given here; further chemistry not fully specified)”, for which, in data set [1], the “ΔTm (° C.)” value came to 0.55 °C and the “Tm (° C.)” value turned out to be 53.17 °C.

In the case of “AD-64366.3 (sense UACAGUCUAUGU; antisense ACAUAGACUGUA; RNA, backbone not given here)”, in data set [1], the “ΔTm (° C.)” value stood at 0 °C and the “Tm (° C.)” value worked out at 52.57 °C.

Turning to “AD-649425.1 (sense TACAGUCTATGT; antisense ACATAGACTGTA; sense: sugars from the 5' end d5 f1 d6, backbone not given here; antisense: sugars from the 5' end d6 f1 d5, backbone not given here)”, in data set [1], the “ΔTm (° C.)” value was −2.5 °C and the “Tm (° C.)” value amounted to 40.17 °C.

In the case of “AD-511247.1 (sense TACAGTCTATGT; antisense ACAUAGACUGUA; sense: DNA, backbone not given here; antisense: RNA, backbone not given here)”, in data set [2] (8×PBS), the “ΔTm (° C.)” value is 0.0 °C and the “Tm (° C.)b” value amounted to 49.1 °C. In data set [2] (1x PBS), the “Tm (° C.)a” value came out at 42.1 °C.

For the substance “AD-511227.1 (sense UACAGUCUAUGU; antisense ACAUAGACUGUA; sense: sugars from the 5' end r5 [UNA]1 r6, backbone not given here; antisense: RNA, backbone not given here)”, in data set [2] (1x PBS), the “ΔTm (° C.)” value is −16.6 °C and the “Tm (° C.)a” value was 35.5 °C. In data set [2] (8×PBS), the “ΔTm (° C.)” value is −17.5 °C and the “Tm (° C.)b” value is 43.6 °C.

For the substance “AD-649422.1 (sense TACAGTCTATGT; antisense ACATAGACTGTA; sense: DNA, backbone not given here; antisense: sugars from the 5' end d6 f1 d5, backbone not given here)”, in data set [1], the “ΔTm (° C.)” value is −0.4 °C and the “Tm (° C.)” value is 42.27 °C.

Regarding “AD-649408.1 (sense UACAGUCUAUGU; antisense ACAUAGACUGUA; chemistry not fully specified)”, in data set [1], the “ΔTm (° C.)” value is −4.5 °C and the “Tm (° C.)” value is 48.07 °C.

“AD-64366.4 (sense UACAGUCUAUGU; antisense ACAUAGACUGUA; RNA, backbone not given here)”: in data set [1], the “ΔTm (° C.)” value came out at 0 °C and the “Tm (° C.)” value amounted to 52.62 °C.

As for “AD-649419.1 (sense TACAGTCTATGT; antisense ACATAGACTGTA; chemistry not fully specified)”, in data set [1], the “ΔTm (° C.)” value worked out at 1.8 °C and the “Tm (° C.)” value is 44.22 °C.

For the substance “AD-649420.1 (sense TACAGTCTATGT; antisense ACATAGACTGTA; chemistry not fully specified)”, in data set [1], the “ΔTm (° C.)” value is −2.5 °C and the “Tm (° C.)” value stood at 39.92 °C.

Regarding “AD-64367.4 (sense TACAGTCTATGT; antisense ACATAGACTGTA; DNA, backbone not given here)”, in data set [1], the “ΔTm (° C.)” value was determined as 0 °C and the “Tm (° C.)” value is 42.67 °C.

Take “AD-64367.2 (sense TACAGTCTATGT; antisense ACATAGACTGTA; DNA, backbone not given here)”: in data set [2] (8×PBS), the “ΔTm (° C.)” value was 0.0 °C and the “Tm (° C.)b” value turned out to be 49.1 °C. In addition, in data set [2] (1x PBS), the “Tm (° C.)a” value came to 43.1 °C.

For “AD-72587.2 (sense UACAGUCUAUGU; antisense ACAUAGACUGUA; siRNA; one TNA cytidine in sense strand, plain letters not given here, further chemistry not given here)”, in data set [1], the “ΔTm (° C.)” value is −5.45 °C and the “Tm (° C.)” value was 47.12 °C.

For “AD-511246.1 (sense UACAGUCUAUGU; antisense ACATAGACTGTA; sense: chemistry not given here; antisense: DNA, backbone not given here; sense strand has one mUNA-type uridine (Uun))”, in data set [2] (8×PBS), the “ΔTm (° C.)” value was −20.5 °C and the “Tm (° C.)b” value is 24.6 °C. Moreover, in data set [2] (1x PBS), the “Tm (° C.)a” value is less than 30 °C.

For the substance “AD-649416.1 (sense UACAGUCUAUGU; antisense ACAUAGACUGUA; sense: RNA, backbone not given here; antisense: sugars from the 5' end r5 f1 r6, backbone not given here)”, in data set [1], the “ΔTm (° C.)” value was found to be 2.7 °C and the “Tm (° C.)” value was found to be 55.32 °C.

For “AD-64980.2 (sense UACAGUCUAUGU; antisense ACAUAGACUGUA; siRNA; one 2'-fluoro U in sense strand, plain letters not given here, further chemistry not given here)”, in data set [1], the “ΔTm (° C.)” value came out at 0.52 °C and the “Tm (° C.)” value worked out at 53.14 °C.

Consider “AD-649409.1 (sense UACAGUCUAUGU; antisense ACAUAGACUGUA; chemistry not fully specified)”, for which, in data set [1], the “ΔTm (° C.)” value was −4.9 °C and the “Tm (° C.)” value was found to be 47.67 °C.

For the substance “AD-511237.1 (sense UACAGUCUAUGU; antisense ACATAGACTGTA; sense: RNA, backbone not given here; antisense: DNA, backbone not given here)”, in data set [2] (8×PBS), the “ΔTm (° C.)” value is 0.0 °C and the “Tm (° C.)b” value worked out at 45.1 °C. Besides, the “Tm (° C.)a” value in data set [2] (1x PBS) came out at 39.1 °C.

As to “AD-649421.1 (sense TACAGTCTATGT; antisense ACATAGACTGTA; chemistry not fully specified)”, in data set [1], the “ΔTm (° C.)” value was −2.365 °C and the “Tm (° C.)” value is 40.055 °C.

For “AD-64366.2 (sense UACAGUCUAUGU; antisense ACAUAGACUGUA; RNA, backbone not given here)”, in data set [2] (1x PBS), the “ΔTm (° C.)” value was 0.0 °C and the “Tm (° C.)a” value is 52.1 °C. In data set [2] (8×PBS), the “ΔTm (° C.)” value was determined as 0.0 °C and the “Tm (° C.)b” value came to 61.1 °C.

As to “AD-72585.2 (sense UACAGTCUAUGU; antisense ACAUAGACUGUA; siRNA; one TNA thymine in sense strand, plain letters not given here, further chemistry not given here)”, in data set [1], the “ΔTm (° C.)” value is −4.825 °C and the “Tm (° C.)” value worked out at 47.745 °C.

Consider “AD-649424.1 (sense TACAGTCTATGT; antisense ACATAGACTGTA; sense: DNA, backbone not given here; antisense: sugars from the 5' end d5 f1 d6, backbone not given here)”, for which, in data set [1], the “ΔTm (° C.)” value was 0.275 °C and the “Tm (° C.)” value is 42.945 °C.

Regarding “AD-649423.1 (sense TACAGTCTATGT; antisense ACATAGACTGTA; sense: sugars from the 5' end d6 f1 d5, backbone not given here; antisense: DNA, backbone not given here)”, in data set [1], the “ΔTm (° C.)” value was −0.325 °C and the “Tm (° C.)” value turned out to be 42.345 °C.
